US7696161B2, “Exendin agonist compounds” (Amylin Pharmaceuticals, Inc., priority 1997, dated 2010)
pEC50: −log10 of the molar value.

Assays:
[1] = biological target: cyclase (RINm5f membranes); test: Cyclase activation study (cAMP by SPA immunoassay, membranes); format: biochemical; conditions: cAMP in membranes, 20 minutes incubation at 37° C.
Procedure: GLP-1(7-36) [NH2] was purchased from Bachem (Torrance, Calif.). All other peptides were prepared using synthesis methods such as those described therein. All chemicals were of the highest commercial grade. The cAMP SPA immunoassay was purchased from Amersham. The radioligands were purchased from New England Nuclear (Boston, Mass.). […] Cells were grown to confluence then harvested and homogenized using on a Polytron homogenizer. Cell homogenates were stored frozen at −70° C. until used. […] Membranes and peptides were combined in […] of assay buffer in 96 well filter-bottom plates (Millipore Corp., Bedford, Mass.). […] Supernatant cAMP contents were quantitated by SPA immunoassay. […] The biological activity of a particular sample was expressed as an EC50 value, calculated as described above.

C57BLKS/J-m-db mice = test: Determination of blood glucose levels in db/db mice; format: in vivo; conditions: 1 μg subcutaneous, plasma glucose one hour after injection vs baseline

pEC50 [1] | SMILES | % drop in glucose (C57BLKS/J-m-db mice) [%]
7.20 | CC[C@H](C)[C@H](NC(=O)[C@H](Cc1ccccc1)NC(=O)[C@H](CC(C)C)NC(=O)[C@H](CCCNC(=N)N)NC(=O)[C@@H](NC(=O)[C@H](C)NC(=O)[C@H](CCC(=O)O)NC(=O)[C@H](CCC(=O)O)NC(=O)[C@H](CCC(=O)O)NC(=O)[C@H](CC(C)C)NC(=O)[C@H](CCC(N)=O)NC(=O)[C@H](CCCCN)NC(=O)[C@H](CO)NC(=O)[C@H](CC(C)C)NC(=O)[C@H](CC(=O)O)NC(=O)[C@H](C)NC(=O)[C@@H](NC(=O)[C@H](Cc1ccccc1)NC(=O)[C@@H](NC(=O)CNC(=O)[C@H](CCC(=O)O)NC(=O)CNC(=O)[C@@H](N)Cc1c[nH]cn1)[C@@H](C)O)[C@@H](C)O)C(C)C)C(=O)N[C@@H](CCC(=O)O)C(=O)N[C@@H](Cc1ccccc1)C(=O)N[C@@H](CC(C)C)C(=O)N[C@@H](CCCCN)C(=O)N[C@@H](CC(N)=O)C(N)=O [Compound 7] | 31
8.17 | CC[C@H](C)[C@H](NC(=O)[C@H](Cc1ccccc1)NC(=O)[C@H](CC(C)C)NC(=O)[C@H](CCCNC(=N)N)NC(=O)[C@@H](NC(=O)[C@H](C)NC(=O)[C@H](CCC(=O)O)NC(=O)[C@H](CCC(=O)O)NC(=O)[C@H](CCC(=O)O)NC(=O)[C@H](CC(C)C)NC(=O)[C@H](CCC(N)=O)NC(=O)[C@H](CCCCN)NC(=O)[C@H](CO)NC(=O)[C@H](C)NC(=O)[C@H](CC(=O)O)NC(=O)[C@H](CO)NC(=O)[C@@H](NC(=O)[C@H](Cc1ccccc1)NC(=O)[C@@H](NC(=O)CNC(=O)[C@H](CCC(=O)O)NC(=O)CNC(=O)[C@@H](N)Cc1c[nH]cn1)[C@@H](C)O)[C@@H](C)O)C(C)C)C(=O)N[C@@H](CCC(=O)O)C(=O)N[C@@H](Cc1ccccc1)C(=O)N[C@@H](CC(C)C)C(=O)N[C@@H](CCCCN)C(=O)N[C@@H](CC(N)=O)C(N)=O [Compound 8] | 44
8.77 | CC[C@H](C)[C@H](NC(=O)[C@H](Cc1ccccc1)NC(=O)[C@H](CC(C)C)NC(=O)[C@H](CCCNC(=N)N)NC(=O)[C@@H](NC(=O)[C@H](C)NC(=O)[C@H](CCC(=O)O)NC(=O)[C@H](CCC(=O)O)NC(=O)[C@H](CCC(=O)O)NC(=O)[C@H](CC(C)C)NC(=O)[C@H](CCC(N)=O)NC(=O)[C@H](CCCCN)NC(=O)[C@H](C)NC(=O)[C@H](CC(C)C)NC(=O)[C@H](CC(=O)O)NC(=O)[C@H](CO)NC(=O)[C@@H](NC(=O)[C@H](Cc1ccccc1)NC(=O)[C@@H](NC(=O)CNC(=O)[C@H](CCC(=O)O)NC(=O)CNC(=O)[C@@H](N)Cc1c[nH]cn1)[C@@H](C)O)[C@@H](C)O)C(C)C)C(=O)N[C@@H](CCC(=O)O)C(=O)N[C@@H](Cc1ccccc1)C(=O)N[C@@H](CC(C)C)C(=O)N[C@@H](CCCCN)C(=O)N[C@@H](CC(N)=O)C(N)=O [Compound 9] | 41
7.81 | CC[C@H](C)[C@H](NC(=O)[C@H](Cc1ccccc1)NC(=O)[C@H](CC(C)C)NC(=O)[C@H](CCCNC(=N)N)NC(=O)[C@@H](NC(=O)[C@H](C)NC(=O)[C@H](CCC(=O)O)NC(=O)[C@H](CCC(=O)O)NC(=O)[C@H](CCC(=O)O)NC(=O)[C@H](C)NC(=O)[C@H](CCC(N)=O)NC(=O)[C@H](CCCCN)NC(=O)[C@H](CO)NC(=O)[C@H](CC(C)C)NC(=O)[C@H](CC(=O)O)NC(=O)[C@H](CO)NC(=O)[C@@H](NC(=O)[C@H](Cc1ccccc1)NC(=O)[C@@H](NC(=O)CNC(=O)[C@H](CCC(=O)O)NC(=O)CNC(=O)[C@@H](N)Cc1c[nH]cn1)[C@@H](C)O)[C@@H](C)O)C(C)C)C(=O)N[C@@H](CCC(=O)O)C(=O)N[C@@H](Cc1ccccc1)C(=O)N[C@@H](CC(C)C)C(=O)N[C@@H](CCCCN)C(=O)N[C@@H](CC(N)=O)C(N)=O [Compound 12] | 53

The next lines start with the compound.

SMILES | pEC50 [1] | % drop in glucose (C57BLKS/J-m-db mice) [%]
CC[C@H](C)[C@H](NC(=O)[C@H](Cc1ccccc1)NC(=O)[C@H](CC(C)C)NC(=O)[C@H](CCCNC(=N)N)NC(=O)[C@@H](NC(=O)[C@H](C)NC(=O)[C@H](CCC(=O)O)NC(=O)[C@H](CCC(=O)O)NC(=O)[C@H](CCC(=O)O)NC(=O)[C@H](CC(C)C)NC(=O)[C@H](CCC(N)=O)NC(=O)[C@H](CCCCN)NC(=O)[C@H](CO)NC(=O)[C@H](CC(C)C)NC(=O)[C@H](CC(=O)O)NC(=O)[C@H](CO)NC(=O)[C@@H](NC(=O)[C@H](Cc1ccccc1)NC(=O)[C@@H](NC(=O)CNC(=O)[C@H](CCC(=O)O)NC(=O)[C@H](C)NC(=O)[C@@H](N)Cc1c[nH]cn1)[C@@H](C)O)[C@@H](C)O)C(C)C)C(=O)N[C@@H](CCC(=O)O)C(=O)N[C@@H](Cc1ccccc1)C(=O)N[C@@H](CC(C)C)C(=O)N[C@@H](CCCCN)C(=O)N[C@@H](CC(N)=O)C(N)=O [Compound 4] | 9.66 | 27
CC[C@H](C)[C@H](NC(=O)[C@H](Cc1ccccc1)NC(=O)[C@H](CC(C)C)NC(=O)[C@H](CCCNC(=N)N)NC(=O)[C@@H](NC(=O)[C@H](C)NC(=O)[C@H](CCC(=O)O)NC(=O)[C@H](CCC(=O)O)NC(=O)[C@H](CCC(=O)O)NC(=O)[C@H](CC(C)C)NC(=O)[C@H](CCC(N)=O)NC(=O)[C@H](CCCCN)NC(=O)[C@H](CO)NC(=O)[C@H](CC(C)C)NC(=O)[C@H](CC(=O)O)NC(=O)[C@H](CO)NC(=O)[C@@H](NC(=O)[C@H](Cc1ccccc1)NC(=O)[C@H](C)NC(=O)CNC(=O)[C@H](CCC(=O)O)NC(=O)CNC(=O)[C@@H](N)Cc1c[nH]cn1)[C@@H](C)O)C(C)C)C(=O)N[C@@H](CCC(=O)O)C(=O)N[C@@H](Cc1ccccc1)C(=O)N[C@@H](CC(C)C)C(=O)N[C@@H](CCCCN)C(=O)N[C@@H](CC(N)=O)C(N)=O [Compound 5] | 8.01 | 47
CC[C@H](C)[C@H](NC(=O)[C@H](Cc1ccccc1)NC(=O)[C@H](CC(C)C)NC(=O)[C@H](CCCNC(=N)N)NC(=O)[C@@H](NC(=O)[C@H](C)NC(=O)[C@H](CCC(=O)O)NC(=O)[C@H](CCC(=O)O)NC(=O)[C@H](CCC(=O)O)NC(=O)[C@H](CC(C)C)NC(=O)[C@H](CCC(N)=O)NC(=O)[C@H](CCCCN)NC(=O)[C@H](CO)NC(=O)[C@H](CC(C)C)NC(=O)[C@H](CC(=O)O)NC(=O)[C@H](CO)NC(=O)[C@@H](NC(=O)[C@H](C)NC(=O)[C@@H](NC(=O)CNC(=O)[C@H](CCC(=O)O)NC(=O)CNC(=O)[C@@H](N)Cc1c[nH]cn1)[C@@H](C)O)[C@@H](C)O)C(C)C)C(=O)N[C@@H](CCC(=O)O)C(=O)N[C@@H](Cc1ccccc1)C(=O)N[C@@H](CC(C)C)C(=O)N[C@@H](CCCCN)C(=O)N[C@@H](CC(N)=O)C(N)=O [Compound 6] | 7.10 | 40
CC[C@H](C)[C@H](NC(=O)[C@H](Cc1ccccc1)NC(=O)[C@H](CC(C)C)NC(=O)[C@H](CCCNC(=N)N)NC(=O)[C@@H](NC(=O)[C@H](C)NC(=O)[C@H](CCC(=O)O)NC(=O)[C@H](CCC(=O)O)NC(=O)[C@H](CCC(=O)O)NC(=O)[C@H](CC(C)C)NC(=O)[C@H](C)NC(=O)[C@H](CCCCN)NC(=O)[C@H](CO)NC(=O)[C@H](CC(C)C)NC(=O)[C@H](CC(=O)O)NC(=O)[C@H](CO)NC(=O)[C@@H](NC(=O)[C@H](Cc1ccccc1)NC(=O)[C@@H](NC(=O)CNC(=O)[C@H](CCC(=O)O)NC(=O)CNC(=O)[C@@H](N)Cc1c[nH]cn1)[C@@H](C)O)[C@@H](C)O)C(C)C)C(=O)N[C@@H](CCC(=O)O)C(=O)N[C@@H](Cc1ccccc1)C(=O)N[C@@H](CC(C)C)C(=O)N[C@@H](CCCCN)C(=O)N[C@@H](CC(N)=O)C(N)=O [Compound 11] | 9.32 | 40
